# How the values were obtained:
# Type in all cases: physicochemical
# [1] = Test Example 6: photostability in container with shrinkable film containing an ultraviolet scattering agent; details: for Analogs (%): aqueous composition 0.4 g/100 mL as free form, pH 6.0, polypropylene container wound with shrinkable film containing titanium oxide (transmittance 300 to 335 nm: 0.3%)
# Experimental: Stabilization of the aqueous composition containing ripasudil was attempted by storing the aqueous composition in a container containing an ultraviolet scattering agent, as in Test Example 5. Specifically, the test was performed as in Test Example 5, except that the below-described container including a shrinkable film containing an ultraviolet scattering agent was used instead of the container containing an ultraviolet absorber, and a white fluorescent lamp (one used in a hospital dispensary and the like) was used as the light source instead of the D65 fluorescent lamp. A white shrinkable film (heat-shrinkable film) (Iwata Label Co., Ltd.) into which 40 to 45 mass % of titanium oxide was mixed as an ultraviolet scattering agent was wound around a side surface of a general container for eye drops made of polypropylene not containing an ultraviolet absorber, an ultraviolet scattering agent, or the like, in accordance with a conventional method, and the resulting container was used. […] Since the shrinkable film was not transparent, the contents were not visible through the side surface of the container in this state (for example, the average value of transmittance of light in the visible light region (450 to 750 nm) was 1.1%). Thus, slits with about a width of 5 mm were provided in the lower half of the side surface of the container to make the amount of the contents visible (this portion was not able to block the rays). The contents were visible through the bottom surface of the container, since the shrinkable film was not wound around the bottom surface.
# [2] = Test Example 9: Preservation Test No. 3, precipitation of crystals at 0° C.; set-up: key to Presence or Absence of Precipitation of Crystals: the absence of precipitation of crystals was rated as “a”; the presence of precipitation of crystals was rated as “b”; details: for Presence or Absence of Precipitation of Crystals: aqueous composition of Table 11 (phosphate, pH 6.7), 0° C. for 2 days; for precipitation of crystals: preserved at low temperature, in words
# Experimental: An aqueous composition of the formulation shown in Table 11 was prepared in accordance with a conventional method, and then placed in a container made of polyethylene terephthalate (PET) or polyvinyl chloride (PVC) to produce a pharmaceutical preparation. Each of the resulting pharmaceutical preparations was preserved at 0° C. for 2 days, and then visually evaluated for the presence or absence of precipitation of crystals. Note that the absence of precipitation of crystals was rated as “a”, and the presence of precipitation of crystals was rated as “b”. [table]
# [3] = Test Example 10: Preservation Test No. 4, precipitation of crystals at 0° C.; set-up: key to Presence or Absence of Precipitation of Crystals: the absence of precipitation of crystals was rated as “a”; the presence of precipitation of crystals was rated as “b”
# Experimental: An aqueous composition of the formulation shown in Table 13 was prepared in accordance with a conventional method, and then placed in a container made of polyethylene terephthalate (PET) to produce a pharmaceutical preparation. The resulting pharmaceutical preparation was preserved at 0° C. for 21 days, and then visually evaluated for the presence or absence of precipitation of crystals. Note that the absence of precipitation of crystals was rated as “a”, and the presence of precipitation of crystals was rated as “b”. [table]
# [4] = Test Example 3: wavelengths of rays causing degradation of ripasudil in an aqueous composition No. 1; details: for Analogs (%): about 15 W·h/m^2, 25° C.; for increase in the amount of analogs: aqueous composition, in words
# Experimental: In the following test examples, ripasudil monohydrochloride dihydrate can be produced in accordance with the method described in WO2006/057397, for example. Moreover, in the following test examples, measurement of ripasudil and its analogs using HPLC was performed using an ODS column as the column, 0.01 mol/L phosphate buffer and acetonitrile as the mobile phase, and an ultraviolet absorptiometer (wavelength: 280 nm) as the detector. The wavelengths of rays causing the photodegradation of ripasudil in the aqueous composition examined in Test Example 2 were identified by examining the presence or absence of degradation products formed by exposure to light, by irradiation of rays with a specific range of wavelengths. Specifically, an aqueous composition containing, per 100 mL, 0.0612 g of ripasudil monohydrochloride dihydrate (0.05 g as the free form of ripasudil), 1.19 g of boric acid, 0.42 g of potassium chloride, 0.002 g of benzalkonium chloride, an appropriate amount of sodium hydroxide (pH 6.7), and sterile purified water (balance) was prepared, and this aqueous composition was stored in a transparent container made of polypropylene. The aqueous composition was then irradiated with rays with wavelengths in the range of approximately 270 to 335 nm, 320 to 395 nm, 370 to 435 nm, 430 to 470 nm, 470 to 530 nm, 525 to 575 nm, 570 to 630 nm, 625 to 675 nm, or 660 to 740 nm, at 25° C., using a spectroradiometer equipped with optical filters (spectral unit: HSU-100S, light source: MAX-302FBD; both from Asahi Spectra Co., Ltd.). Note that the rays of wavelengths in each of the ranges were emitted at a radiation energy of about 15 w·h/m^2. To examine the presence or absence of photodegradation products of ripasudil, the presence or absence of an increase in the amount of ripasudil analogs was evaluated, using the same method as that of Test Example 1.
smiles,measurement,setting,value
"C[C@H]1CNCCCN1S(=O)(=O)c1cccc2cncc(F)c12 [ripasudil, 4-fluoro-5-[[(2S)-2-methyl-1,4-diazepan-1-yl]sulfonyl]isoquinoline]",Analogs (%),[1]; before exposure to light,0.13%
same,Analogs (%),"[1]; white fluorescent lamp, 1,200,000 lux·hr",0.28%
same,photostability of ripasudil in the aqueous composition,"[1]; container with average transmittance at 300 to 335 nm of 0.3%, in words",improved
same,Presence or Absence of Precipitation of Crystals,[2]; container PET,a
same,Presence or Absence of Precipitation of Crystals,[2]; container PVC,b
same,precipitation of crystals,[2]; container made of PET,no precipitation of crystals was observed
same,precipitation of crystals,[2]; container made of PVC,precipitation of crystals was observed
same,Presence or Absence of Precipitation of Crystals,"[3]; aqueous composition of Table 13 (boric acid, pH 6.7), 0° C. for 21 days, container PET",a
same,precipitation of crystals,"[3]; changed formulation, preserved at low temperature, container made of PET, in words",no precipitation of crystals was observed
same,Analogs (%),"[4]; aqueous composition 0.05 g/100 mL as free form, boric acid, pH 6.7, transparent polypropylene container, emitted wavelengths 270 to 335 nm",4.22%
same,increase in the amount of analogs,[4]; rays with wavelengths of 370 nm or more,an increase in the amount of analogs was not observed
same,increase in the amount of analogs,"[4]; shorter wavelengths, particularly 270 to 335 nm",a significant increase in the amount of analogs was observed
same,Analogs (%),"[4]; same composition, emitted wavelengths 320 to 395 nm",1.23%
same,Analogs (%),"[4]; same composition, emitted wavelengths 370 to 435 nm",0.05%
same,Analogs (%),"[4]; same composition, emitted wavelengths 430 to 470 nm",0.05%
same,Analogs (%),"[4]; same composition, emitted wavelengths 470 to 530 nm",0.05%
same,Analogs (%),"[4]; same composition, emitted wavelengths 525 to 575 nm",0.05%
same,Analogs (%),"[4]; same composition, emitted wavelengths 570 to 630 nm",0.05%
same,Analogs (%),"[4]; same composition, emitted wavelengths 625 to 675 nm",0.05%
same,Analogs (%),"[4]; same composition, emitted wavelengths 660 to 740 nm",0.05%
